We go through three compounds from US5242929A, “Derivatives of substituted imidazol-2-one and process for their preparation” (Farmitalia Carlo Erba S.r.l., priority 1991, dated 1993).

Structures are written as SMILES. Where two headings read alike, the source gives them in different places.

The target in assay [1] is T1, 5HT3 receptor (Rattus norvegicus, UniProt P35563).
T1 sequence (P35563 24-483): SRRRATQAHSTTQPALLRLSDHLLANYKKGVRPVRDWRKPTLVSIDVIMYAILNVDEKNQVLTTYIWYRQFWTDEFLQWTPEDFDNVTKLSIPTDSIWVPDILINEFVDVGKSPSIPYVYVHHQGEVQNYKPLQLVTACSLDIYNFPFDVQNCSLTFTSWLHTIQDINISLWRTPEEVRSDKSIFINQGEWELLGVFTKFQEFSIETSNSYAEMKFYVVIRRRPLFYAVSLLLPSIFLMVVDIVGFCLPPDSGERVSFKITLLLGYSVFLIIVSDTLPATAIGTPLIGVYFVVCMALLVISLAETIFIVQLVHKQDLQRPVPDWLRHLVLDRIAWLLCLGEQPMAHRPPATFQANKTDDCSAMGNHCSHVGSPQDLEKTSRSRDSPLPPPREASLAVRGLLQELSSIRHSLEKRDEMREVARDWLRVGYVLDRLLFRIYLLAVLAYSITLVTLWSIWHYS
The experiment in a line: von Bezold-Jarisch chemoreflex evoked by 5-HT in the anesthetised rat. Type of assay: in vivo. Set-up: chemoreflex evoked by 5-HT in the anesthetised rat; from tissue; host or cells: whole living anesthetised rat, endogenous receptor (vagal afferents by own knowledge). The following applies: 5-HT 20 μg/kg i.v., anesthetized rat; for % inhibition of the Bezold-Jarisch reflex: mean ± S.E.M. from 6 animals, *p < 0.01 vs controls (Dunnett's test). How it is done: Pharmacol. 326, 36-44 (1984).
The following Table I reports the in vivo 5HT3 antagonist activity data obtained in this test for the representative compound of the invention 1-(1-azabicyclo[2.2.2]oct-3 yl)-3-(3-chlorophenyl)-imidazolidin-2-one (internal code FCE 26778).
Inhibition of the Bezold-Jarisch reflex elicited by 5-HT
(20 μg/kg i.v.) by i.v. FCE 26778 in the anesthetized rat.
Values are mean ± S.E.M. from 6 animals

In assay [2] the target is T1, 5HT3 receptor. In words: inhibition of the binding of ^3 H-GR65630 in rat entorhinal cortex. Set-up: labeled in the entorhinal cortex of the rat brain; from tissue; host or cells: rat entorhinal cortex. The following applies: for binding model / interaction with 5-HT3 receptors: entorhinal cortex of the rat brain, ^3 H-GR 65630.

`O=C1N(c2cccc(Cl)c2)CCN1C1CN2CCC1CC2` (centres unmarked) [FCE 26778, 1-(1-azabicyclo[2.2.2]oct-3 yl)-3-(3-chlorophenyl)-imidazolidin-2-one]: the “% inhibition of the Bezold-Jarisch reflex” value amounted to 26.66 ± 5.25% in assay [1] (30 μg/kg i.v.), 59.57 ± 5.87% in assay [1] (100 μg/kg i.v.) and 81.33 ± 3.32% in assay [1] (300 μg/kg i.v.). In assay [1] (iv, limits 54.50-98.39), this compound showed an ED50 of 0.0749 mg/kg. Further, the Ki in assay [2] was found to be 4.42 nM; in assay [2] ([^3 H]GR 65630 labelled 5HT3 sites, rat entorhinal cortex, two site fitting, low affinity, read-out: Ki low) it was 1100 nM. For the same compound, the “binding model / interaction with 5-HT3 receptors” value (“binding model / interaction” below) in assay [2] is “interacted according to a two site non-linear fitting model”.

Turning to `CN1C2CCC1CC(OC(=O)c1cc(Cl)cc(Cl)c1)C2` (centres unmarked) [MDL 72222], in assay [2], the Ki came out at 25.5 nM and the “binding model / interaction” value is given as “displaced ^3 H-GR 65630 according to one site non-linear fitting”.

For `CCN(CC)CCNC(=O)c1cc(Cl)c(N)cc1OC` [Metoclopramide], in assay [2], the affinity, expressed as Ki, was 547 nM and the “binding model / interaction” value is “displaced ^3 H-GR 65630 according to one site non-linear fitting”.

The ED50 is the dose that gives a 50% effect, or the effect in half of the subjects. One may read the Ki as the equilibrium dissociation constant of an inhibitor or competing ligand from its target.
